# Columns and labels:
# heart form of human NBC1 = molecular target: T1, heart form of human NBC1 (Homo sapiens, UniProt Q9Y6R1); experiment: NBC activity measurement (pHi recovery after acid load, BCECF, FLIPR); type: cell-based; settings: residual NBC activity at inhibitor concentration of 10 μM; CHO K1 cells transfected with heart form of human NBC1; NHE and NCBE blocked; duplicate determinations
# T1 construct: expressed in transfected cells
# T1 sequence (Q9Y6R1 1-1079): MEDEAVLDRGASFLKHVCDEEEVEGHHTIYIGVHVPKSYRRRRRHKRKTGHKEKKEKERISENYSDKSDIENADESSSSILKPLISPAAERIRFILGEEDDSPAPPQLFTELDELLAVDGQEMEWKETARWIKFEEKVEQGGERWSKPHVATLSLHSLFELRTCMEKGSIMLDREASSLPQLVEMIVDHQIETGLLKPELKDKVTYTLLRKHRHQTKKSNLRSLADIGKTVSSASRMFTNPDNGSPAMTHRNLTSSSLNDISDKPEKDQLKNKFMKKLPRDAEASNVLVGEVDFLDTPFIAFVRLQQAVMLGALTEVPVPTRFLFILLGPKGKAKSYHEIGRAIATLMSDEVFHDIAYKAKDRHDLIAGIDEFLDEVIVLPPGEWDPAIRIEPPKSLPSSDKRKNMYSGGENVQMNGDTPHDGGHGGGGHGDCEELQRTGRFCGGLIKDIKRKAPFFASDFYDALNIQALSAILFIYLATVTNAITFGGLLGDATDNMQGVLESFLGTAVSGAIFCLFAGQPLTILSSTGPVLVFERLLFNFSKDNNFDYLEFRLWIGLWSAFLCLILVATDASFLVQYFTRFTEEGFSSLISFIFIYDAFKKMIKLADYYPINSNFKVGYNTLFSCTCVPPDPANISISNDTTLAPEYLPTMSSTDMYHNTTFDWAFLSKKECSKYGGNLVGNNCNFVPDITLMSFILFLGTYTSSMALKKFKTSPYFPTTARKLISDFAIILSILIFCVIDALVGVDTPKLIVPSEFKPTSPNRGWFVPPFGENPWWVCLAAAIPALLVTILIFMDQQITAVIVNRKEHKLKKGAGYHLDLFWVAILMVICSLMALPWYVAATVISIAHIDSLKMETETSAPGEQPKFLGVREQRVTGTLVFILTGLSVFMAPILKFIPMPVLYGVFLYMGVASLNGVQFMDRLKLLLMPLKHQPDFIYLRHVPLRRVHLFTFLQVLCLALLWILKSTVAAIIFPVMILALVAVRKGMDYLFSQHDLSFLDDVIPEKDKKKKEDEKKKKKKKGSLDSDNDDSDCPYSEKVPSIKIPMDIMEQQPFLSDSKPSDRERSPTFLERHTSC
# Text: Firstly, the heart form of human NBC1 was cloned by RT-PCR. After confirmation of the sequence, the corresponding cDNAs were cloned into the vector pcDNA3.1+, which contains the neo gene as a selection marker for eukaryotic cells. For the amplification of the human heart form of NBC1, human heart mRNA (Clontech, Palo Alto, Calif., USA) was amplified using primers which cover the area in which the heart form differs from the kidney form. The heart form in this case differs only at the 5′ end of the coding sequence. The area coding for the first 41 amino acids of the kidney form is replaced in the heart form by an area coding for 85 amino acids (positions 118-370 from Abukadze et al., J. Biol. Chem. 273,17689-17695 (1998) or positions 45-294 from Choi et al., Am. J. Physiol. Cell Physiol. 276, C576-C584 (1999) replace positions 150-270 from Burnham et al. (see above.), J. Biol. Chem. 272, 19 111-19 114 (1997). The product of the PCR reaction was first cloned into the vector pCR2.1 and, after verification of the sequence, cloned into the cDNA of the kidney form of NBC1 by means of cleavage sites introduced by means of the PCR reaction. The construct obtained was checked for correct incorporation of the human heart NBC1-cDNA by sequencing. The plasmids obtained for the heart form of human NBC1 were transfected by means of the LipofectAmine™ reagent of the company LifeTechnologies (Gaithersburg, Md., USA) into the cell line CHO K1 (ovary cells of the Chinese hamster), which has no measurable NBC activity. After selection for transfected cells by means of growth in G418-containing medium (only cells which have obtained a neo gene by transfection can survive under these conditions), individual cells were isolated and cultured. Using the test described below, cell clones were identified in FLIPR which have a clear NBC activity. The best cell lines were used for the further tests and, to avoid a loss of the transfected sequence, cultured in G418-containing medium under continuous selection pressure.
# For the determination of the inhibitory activity of the active compounds on the heart form of human NBC 1, a test was constructed which represents a further development of the assay constructed for the testing of inhibitors of NCBE (Na^+dependent Cl^−/HCO3− exchanger) (EP 0 903 339) based on the acid load method (Sardet et al., Cell 56, 271-280 (1989); Faber et al., Cell. Physiol. Biochem. 6, 39-49 (1996). In this test, the recovery of the intracellular pH (pHi) after prior acidification is determined under conditions in which the NBC is active, the other pHiregulating systems of the CHO cells such as NHE (Na^+/H^+ exchanger) and NCBE (Na^+-dependent Cl^−/HCO3− exchanger) are blocked, however, by specific inhibitors. In this way, it is ensured that the recovery of the intracellular pH observed is based on the activity of NBC1.
# The transfected cells were inoculated into 96 well microtiter plates in a density of about 15,000 cells/well in 200 μl of growth medium and incubated overnight at 37° C. in a CO2 incubator. The intracellular pH of the transfected cells was determined using the pH-sensitive fluorescent dye BCECF (Molecular Probes (Eugene, Oreg., USA), the precursor BCECF-AM is employed). The cells were first loaded with BCECF-AM. The growth medium of the cells inoculated on the day before was manually removed, since the fetal calf serum present in the medium could interfere with the BCECF staining. For staining, 100 μl of NH4Cl stain buffer (20 mM NH4Cl, 115 mM NaCl, 1 mM MgSO4, 1 mM CaCl2, 5 mM KCl, 20 mMHEPES, 5 mM glucose; pH adjusted to 7.4 using 1 M NaOH) was added to the cells of each well, which contains 5 μM BCECF-AM. The cells were incubated with the stain solution at 37° C. in a CO2 incubator for 20 minutes. […]
# [1] = test system: isolated beating rat heart; experiment: ischemia/reperfusion model (isolated beating rat heart); settings: combination of the NBC blocker with the NHE inhibitor cariporide mesilate
Compound,residual activity [%] at 10 μM (heart form of human NBC1) [%],cardioprotective action [1]
"Cc1cc(NCCCCc2ccccc2)c(C(=O)O)cc1S(=O)(=O)NCc1ccc(F)c(Cl)c1 [Example 4, 4-Methyl-5-(3-chloro-4-fluorobenzylsulfamoyl)-2-phenylbutylaminobenzoic acid]",54,–
4-Chloro-5-[(5-methylfuran-2-ylmethyl)sulfamoyl]-2-phenylbutylaminobenzoic acid [Example 15],79,–
"O=C(O)c1cc(S(=O)(=O)NCc2ccc(F)c(Cl)c2)c(Cl)cc1NCCCCc1ccccc1 [Example 1, 4-Chloro-5-(3-chloro-4-fluorobenzylsulfamoyl)-2-phenylbutylaminobenzoic acid]",46,greater than additive cardioprotective action
"O=C(O)c1cc(S(=O)(=O)NCc2c(F)cccc2Cl)c(Cl)cc1NCCCCc1ccccc1 [Example 14, 4-Chloro-2-phenylbutylamino-5-(2-chloro-6-fluorobenzylsulfamoyl)benzoic acid]",87,–
"O=C(O)c1cc(S(=O)(=O)NCc2ccc(Cl)cc2Cl)c(Cl)cc1NCCCCc1ccccc1 [Example 13, 4-Chloro-2-phenylbutylamino-5-(2,4-dichlorobenzylsulfamoyl)benzoic acid]",60,–
"NS(=O)(=O)c1ccc(CNS(=O)(=O)c2cc(C(=O)O)c(NCCCCc3ccccc3)cc2Cl)cc1 [Example 11, 4-Chloro-2-phenylbutylamino-5-(4-sulfamoylbenzylsulfamoyl)benzoic acid]",81,–
"O=C(O)c1cc(S(=O)(=O)NCc2ccncc2)c(Cl)cc1NCCCCc1ccccc1 [Example 8, 4-Chloro-2-phenylbutylamino-5-[(pyridin-4-ylmethyl)sulfamoyl]benzoic acid]",89,–
"O=C(O)c1cc(S(=O)(=O)NCc2ccc(F)c(Cl)c2)c(Br)cc1NCCCCc1ccccc1 [Example 2, 4-Bromo-5-(3-chloro-4-fluorobenzylsulfamoyl)-2-phenylbutylaminobenzoic acid]",56,–
"O=C(O)c1cc(S(=O)(=O)NCc2cccc(Cl)c2)c(Cl)cc1NCCCCc1ccccc1 [Example 10, 4-Chloro-2-phenylbutylamino-5-(3-chlorobenzylsulfamoyl)benzoic Acid]",75,–
"O=C(O)c1cc(S(=O)(=O)NCc2ccc(F)c(Cl)c2)ccc1NCCCCc1ccccc1 [Example 3, 5-(3-Chloro-4-fluorobenzylsulfamoyl)-2-phenylbutylaminobenzoic acid]",88,–
"O=C(O)c1cc(S(=O)(=O)NCCc2cccs2)c(Cl)cc1NCCCCc1ccccc1 [Example 17, 4-Chloro-2-phenylbutylamino-5-(2-thiophen-2-ylethylsulfamoyl)benzoic acid]",95,–
"O=C(O)c1cc(S(=O)(=O)NCc2cccc(Cl)c2Cl)c(Cl)cc1NCCCCc1ccccc1 [Example 12, 4-Chloro-2-phenylbutylamino-5-(2,3-dichlorobenzylsulfamoyl)benzoic acid]",37,–
"O=C(O)c1cc(S(=O)(=O)NCc2ccccn2)c(Cl)cc1NCCCCc1ccccc1 [Example 9, 4-Chloro-2-phenylbutylamino-5-[(pyridin-2-ylmethyl)sulfamoyl]benzoic acid]",89,–

# Now from value to compound, other results behind:
residual activity [%] at 10 μM (heart form of human NBC1) [%],Compound,cardioprotective action [1]
77,4-Chloro-5-(phenylbutylsulfamoyl)-2-phenylbutylaminobenzoic Acid [Example 19],–
95,4-(4-Methylphenyl)-5-(3-chloro-4-fluorobenzylsulfamoyl)-2-phenylbutylaminobenzoic acid [Example 7],–
78,"CC(C)c1cc(NCCCCc2ccccc2)c(C(=O)O)cc1S(=O)(=O)NCc1ccc(F)c(Cl)c1 [Example 5, 4-isopropyl-5-(3-chloro-4-fluorobenzylsulfamoyl)-2-phenylbutylaminobenzoic acid]",–
79,"CCc1ccc(NS(=O)(=O)c2cc(C(=O)O)c(NCCCCc3ccccc3)cc2Cl)cc1 [Example 18, 4-Chloro-5-(4-ethylphenylsulfamoyl)-2-phenylbutylaminobenzoic acid]",–
89,4-Chloro-5-(cyclohexylmethylsulfamoyl)-2-phenylbutylaminobenzoic acid [Example 20],–
91,"O=C(O)c1cc(S(=O)(=O)NCCc2ccc(Cl)cc2)c(Cl)cc1NCCCCc1ccccc1 [Example 16, 4-Chloro-5-[2-(4-chlorophenyl)ethylsulfamoyl]-2-phenylbutylaminobenzoic acid]",–
69,"CCCc1cc(NCCCCc2ccccc2)c(C(=O)O)cc1S(=O)(=O)NCc1ccc(F)c(Cl)c1 [Example 6, 4-n-Propyl-5-(3-chloro-4-fluorobenzylsulfamoyl)-2-phenylbutylaminobenzoic acid]",–
94,"CC(C)CNS(=O)(=O)c1cc(C(=O)O)c(NCCCCc2ccccc2)cc1Cl [Example 21, 4-Chloro-5-(isobutylsulfamoyl)-2-phenylbutylaminobenzoic acid]",–
